According to ChEMBL document CHEMBL1201862, “PubChem BioAssay data set” (2004):
Active and inactive are the calls of the source.

Columns and labels:
[1] = Fluorescence polarization-based biochemical high throughput dose response assay for activators of the Protein Kinase A-R1A (PKA-R1A) complex. [Related pubchem assays (depositor defined):AID504704, AID504707, AID504799, AID504800]
[2] = Fluorescence polarization-based biochemical high throughput dose response assay for activators of the Protein Kinase A-R2B (PKA-R2B) complex. [Related pubchem assays (depositor defined):AID504700, AID504704, AID504796, AID504797]
[3] = target: T1, Dual specificity protein phosphatase 3 (Homo sapiens, UniProt P51452); assay: VHR1 phosphatase inhibitors, primary screen, biochemical, absorbance, uHTS (AID 1654)
[4] = target: T1, Dual specificity protein phosphatase 3; assay: VHR1 phosphatase inhibitors, biochemical (AID 1878)
[5] = target: T2, Dual specificity protein phosphatase 6 (Rattus norvegicus, UniProt Q64346); assay: MKP-3 phosphatase inhibitors, primary screen, biochemical, rat enzyme, in vitro (AID 425)
T2 sequence (Q64346 whole entry): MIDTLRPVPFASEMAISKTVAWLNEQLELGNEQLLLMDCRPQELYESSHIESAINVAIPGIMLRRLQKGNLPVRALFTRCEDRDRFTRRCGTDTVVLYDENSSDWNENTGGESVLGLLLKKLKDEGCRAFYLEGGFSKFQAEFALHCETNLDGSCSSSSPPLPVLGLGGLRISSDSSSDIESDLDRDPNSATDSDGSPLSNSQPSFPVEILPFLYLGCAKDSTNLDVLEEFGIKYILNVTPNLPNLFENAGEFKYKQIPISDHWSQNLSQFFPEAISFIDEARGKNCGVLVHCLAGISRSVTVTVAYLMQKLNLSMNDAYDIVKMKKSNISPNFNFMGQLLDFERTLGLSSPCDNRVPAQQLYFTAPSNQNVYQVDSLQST

[6] = target: Glucose-6-phosphate 1-dehydrogenase (Homo sapiens, UniProt P11413); assay: human G6PD enzyme inhibitors, dose response, selectivity assay for P. falciparum G6PD inhibitor project, biochemical, fluorescence (AID 504792); assay type: functional
[7] = target: T1, Dual specificity protein phosphatase 3; assay: SAR VHR1 absorbance Assay for In Vitro dose response studies. [Related pubchem assays (depositor defined):AID1654, AID1661, AID1878, AID1992, AID2004]
[8] = target: T1, Dual specificity protein phosphatase 3; assay: SAR VHR1 Fluorescent Assay for In Vitro dose response studies. [Related pubchem assays (depositor defined):AID1654, AID1661, AID1878, AID1992, AID2004, AID2070, AID2085]; assay type: functional
[9] = target: T3, Tyrosine-protein phosphatase non-receptor type 7 (Homo sapiens, UniProt P35236); assay: redox-dependent HePTP inhibition, mechanism study, biochemical, fluorescence (AID 2068); assay type: functional
T3 sequence (P35236 whole entry): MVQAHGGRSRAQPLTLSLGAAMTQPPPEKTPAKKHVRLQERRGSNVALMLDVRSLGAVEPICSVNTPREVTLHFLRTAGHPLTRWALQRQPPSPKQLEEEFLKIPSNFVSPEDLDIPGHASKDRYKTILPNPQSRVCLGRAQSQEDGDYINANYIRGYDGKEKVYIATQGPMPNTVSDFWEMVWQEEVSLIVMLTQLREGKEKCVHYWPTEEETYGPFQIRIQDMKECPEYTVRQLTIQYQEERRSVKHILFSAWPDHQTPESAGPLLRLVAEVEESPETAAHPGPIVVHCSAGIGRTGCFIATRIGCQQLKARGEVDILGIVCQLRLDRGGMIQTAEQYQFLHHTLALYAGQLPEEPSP

[10] = target: T2, Dual specificity protein phosphatase 6; assay: SAR analysis of inhibitors of MKP-3 - Set 2. [Related pubchem assays (depositor defined):AID1055, AID1661, AID425, AID553, AID566]; assay type: functional
[11] = target: T3, Tyrosine-protein phosphatase non-receptor type 7; assay: SAR analysis of chemical inhibitors of HePTP using a Fluorescent assay - Set 2. [Related pubchem assays (depositor defined):AID1059, AID1077, AID1661, AID2085, AID521]; assay type: functional
[12] = target: T1, Dual specificity protein phosphatase 3; assay: SAR VHR1 Fluorescent Assay for In Vitro dose response studies Set 2. [Related pubchem assays (depositor defined):AID1654, AID1661, AID1878]; assay type: functional
[13] = target: T2, Dual specificity protein phosphatase 6; assay type: functional
[14] = target: T4, Tyrosine-protein phosphatase non-receptor type 11 (Homo sapiens, UniProt Q06124); assay: SHP2 phosphatase inhibition, dose response, selectivity assay for STEP inhibitor project, biochemical (AID 602367); assay type: functional; details: read-out: IC50_Mean
T4 sequence (Q06124 whole entry): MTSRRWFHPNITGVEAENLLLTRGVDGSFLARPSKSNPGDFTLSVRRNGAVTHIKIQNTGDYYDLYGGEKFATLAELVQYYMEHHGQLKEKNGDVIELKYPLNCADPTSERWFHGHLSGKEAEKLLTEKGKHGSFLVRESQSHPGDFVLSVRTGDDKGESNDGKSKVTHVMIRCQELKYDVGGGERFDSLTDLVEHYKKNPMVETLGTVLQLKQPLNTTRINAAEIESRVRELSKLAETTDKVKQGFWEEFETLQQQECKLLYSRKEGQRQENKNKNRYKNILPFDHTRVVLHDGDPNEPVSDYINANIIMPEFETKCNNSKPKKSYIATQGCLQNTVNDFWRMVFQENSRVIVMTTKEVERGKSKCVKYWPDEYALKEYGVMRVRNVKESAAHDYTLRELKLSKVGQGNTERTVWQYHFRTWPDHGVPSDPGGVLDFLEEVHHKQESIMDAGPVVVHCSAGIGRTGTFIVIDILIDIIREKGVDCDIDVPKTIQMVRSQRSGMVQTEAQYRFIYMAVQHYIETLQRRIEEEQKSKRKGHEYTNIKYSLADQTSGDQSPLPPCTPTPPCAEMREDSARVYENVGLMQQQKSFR

[15] = target: T5, Tyrosine-protein phosphatase non-receptor type 5 (Homo sapiens, UniProt P54829); assay: STEP phosphatase inhibitors, confirmation, biochemical, fluorescence intensity, uHTS hits (AID 602372); assay type: functional; details: read-out: IC50_Mean
T5 sequence (P54829 whole entry): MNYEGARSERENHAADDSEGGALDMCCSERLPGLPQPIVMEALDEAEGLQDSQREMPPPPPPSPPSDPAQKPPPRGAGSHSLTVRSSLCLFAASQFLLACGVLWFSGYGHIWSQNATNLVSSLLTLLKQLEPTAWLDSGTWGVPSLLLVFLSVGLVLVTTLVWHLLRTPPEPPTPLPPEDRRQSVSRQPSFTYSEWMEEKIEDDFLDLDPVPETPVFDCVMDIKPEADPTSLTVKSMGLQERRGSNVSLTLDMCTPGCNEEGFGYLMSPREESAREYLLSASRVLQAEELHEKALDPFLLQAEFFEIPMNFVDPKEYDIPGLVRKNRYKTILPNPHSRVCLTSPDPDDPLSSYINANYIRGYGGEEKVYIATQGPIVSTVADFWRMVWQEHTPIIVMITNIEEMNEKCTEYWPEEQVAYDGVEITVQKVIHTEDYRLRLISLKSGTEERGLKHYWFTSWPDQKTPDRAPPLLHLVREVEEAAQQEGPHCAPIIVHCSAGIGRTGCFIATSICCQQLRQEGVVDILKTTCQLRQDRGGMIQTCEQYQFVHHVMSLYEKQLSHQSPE

[16] = target: T1, Dual specificity protein phosphatase 3; assay: VHR phosphatase inhibition, dose response, selectivity assay for STEP inhibitor project, biochemical (AID 602374); assay type: functional; details: read-out: IC50_Mean
[17] = target: T6, Tyrosine-protein phosphatase non-receptor type 22 (Homo sapiens, UniProt Q9Y2R2); assay: PTPN22 phosphatase inhibition, dose response, selectivity assay for STEP inhibitor project, biochemical (AID 624241); assay type: functional
T6 sequence (Q9Y2R2 whole entry): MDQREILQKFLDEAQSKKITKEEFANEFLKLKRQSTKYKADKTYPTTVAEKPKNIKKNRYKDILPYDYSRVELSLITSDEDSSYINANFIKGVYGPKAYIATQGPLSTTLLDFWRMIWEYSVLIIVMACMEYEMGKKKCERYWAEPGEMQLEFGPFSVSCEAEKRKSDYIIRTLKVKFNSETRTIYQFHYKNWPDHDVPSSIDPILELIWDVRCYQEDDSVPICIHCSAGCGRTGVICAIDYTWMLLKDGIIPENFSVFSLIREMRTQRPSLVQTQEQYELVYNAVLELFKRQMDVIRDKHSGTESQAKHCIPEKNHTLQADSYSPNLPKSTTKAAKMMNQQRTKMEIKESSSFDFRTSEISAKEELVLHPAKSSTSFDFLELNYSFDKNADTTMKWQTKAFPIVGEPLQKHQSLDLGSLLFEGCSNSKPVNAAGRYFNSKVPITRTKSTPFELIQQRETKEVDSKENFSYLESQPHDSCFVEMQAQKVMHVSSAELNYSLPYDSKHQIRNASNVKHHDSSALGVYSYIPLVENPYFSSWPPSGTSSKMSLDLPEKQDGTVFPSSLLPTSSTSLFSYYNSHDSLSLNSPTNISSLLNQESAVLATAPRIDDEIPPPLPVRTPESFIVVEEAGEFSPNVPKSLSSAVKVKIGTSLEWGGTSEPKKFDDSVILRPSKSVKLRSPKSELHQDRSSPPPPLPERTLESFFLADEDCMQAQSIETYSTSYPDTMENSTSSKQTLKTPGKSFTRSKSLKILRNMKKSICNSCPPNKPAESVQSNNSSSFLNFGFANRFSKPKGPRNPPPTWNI

[18] = Luminescence Cell-Based Dose Retest to Confirm Inhibitors of Cancer Stem Cells. [Related pubchem assays (depositor defined):AID2717, AID2721]; assay type: functional; details: Homo sapiens
[19] = cytotoxicity in HMLE control line with eGFP shRNA, dose response, counter-screen for HMLE_sh_ECad selective toxicity project, cell-based, HMLE_sh_eGFP, luminescence (AID 463074); assay type: functional, Homo sapiens;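 further: HMLE human mammary epithelial cells expressing control shRNA against eGFP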
Escherichia coli [20] = assay: microbe, parasite or virus in culture
Escherichia coli [21] = assay: microbe, parasite or virus in culture; remark: listed apart in the source
[22] = target: T1, Dual specificity protein phosphatase 3; assay: SAR VHR1 Fluorescent Assay for In Vitro dose response studies Set 3. [Related pubchem assays (depositor defined):AID1654, AID1661, AID1878]; assay type: functional

T1 sequence (P51452 whole entry): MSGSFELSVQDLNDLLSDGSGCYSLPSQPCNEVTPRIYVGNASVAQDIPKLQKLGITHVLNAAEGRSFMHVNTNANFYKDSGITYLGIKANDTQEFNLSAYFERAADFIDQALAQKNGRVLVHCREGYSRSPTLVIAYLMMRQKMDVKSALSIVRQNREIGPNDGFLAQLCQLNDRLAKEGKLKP
Chain of Glucose-6-phosphate 1-dehydrogenase (P11413 whole entry): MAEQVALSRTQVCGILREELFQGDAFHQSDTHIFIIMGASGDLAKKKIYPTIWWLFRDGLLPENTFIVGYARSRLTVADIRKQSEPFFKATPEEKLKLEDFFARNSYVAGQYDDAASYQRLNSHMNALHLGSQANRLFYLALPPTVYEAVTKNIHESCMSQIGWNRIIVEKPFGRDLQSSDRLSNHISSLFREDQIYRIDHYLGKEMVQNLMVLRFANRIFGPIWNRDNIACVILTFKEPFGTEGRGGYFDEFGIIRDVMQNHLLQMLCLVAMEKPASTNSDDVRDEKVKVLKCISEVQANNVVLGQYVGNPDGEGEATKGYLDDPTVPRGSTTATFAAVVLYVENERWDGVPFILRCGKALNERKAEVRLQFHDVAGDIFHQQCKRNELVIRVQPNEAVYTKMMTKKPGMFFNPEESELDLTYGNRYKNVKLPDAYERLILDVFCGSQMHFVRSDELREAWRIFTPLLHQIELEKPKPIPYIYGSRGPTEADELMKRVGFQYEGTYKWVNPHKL

## Nc1ncnc2c1nc(Br)n2[C@@H]1O[C@@H]2COP(=O)(O)O[C@H]2[C@H]1O
[1]
  EC50: 0.0344 µM (active)
[2]
  EC50: 0.0511 µM (active)

## COc1ccc(NC(=S)N(CCC(C)C)C2CCN(C(C)C)CC2)cc1Cl
[3]
  IC50: 2.09 µM (active)
[4]
  IC50: 4.01 µM (active)
[5]
  IC50: > 158 µM (not active)
[6]
  IC50: > 80 µM (inactive)
[7]
  IC50: 1.26 µM (active)
[8]
  IC50: > 99 µM (inactive)
[9]
  IC50: < 0.195 µM (active)
[10]
  IC50: > 100 µM (inactive)
[11]
  IC50: 0.662 µM (active)
[12]
  IC50: 0.216 µM (active)
[13]
  IC50: > 99 µM (inactive)
[14]
  IC50: 0.676 µM (active)
[15]
  IC50: 3.86 µM (active)
[16]
  IC50: 0.271 µM (active)
[17]
  IC50: 21 µM (inactive)

## COc1ccccc1N=C(S)N=Nc1c(O)[nH]c2ccc(Br)cc12
[18]
  AC50: 0.739 µM (active)
[19]
  AC50: 31.4 µM (active)

## Cc1ccccc1C(=O)N1CCC(C(=O)NC(C)c2ccc(-n3ccnc3)cc2)CC1 (configuration not stated)
Escherichia coli [20]
  AC50: 24.5 µM (active)
Escherichia coli [21]
  AC50: 69.2 µM (active)

## O=C(Nc1ccc(-c2nc3ccccc3s2)cc1)c1cc(-n2cnnc2)ccc1Cl
[22]
  IC50: 12.1 µM (active)
